Laboratory results from ChEMBL document CHEMBL1201862, “PubChem BioAssay data set” (2004).
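Briefly, cells in 96-well plates were exposed to five compound concentrations for 48 h, and endpoints were estimated by linear interpolation. Abbreviation: GI50, concentration required for 50% inhibition of growth.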 Calls of active or inactive are those of the source. Rule as the data show it: active = GI50 up to about 1.1 µM and inactive = higher.

How the values were obtained:
Assay in all cases: NCI anticancer screen, dose series, 48 h
XF498 = test system: XF498
A498 = test system: A498
DMS-273 = test system: DMS-273
NCI-H23 = test system: NCI-H23
UACC-62 = test system: UACC-62
SK-MEL-2 = test system: SK-MEL-2
HCC 2998 = test system: HCC 2998
SF-295 = test system: SF-295
NCI-H460 = test system: NCI-H460
HCT-15 = test system: HCT-15
SR = test system: SR
K562 = test system: K562
CCRF-CEM = test system: CCRF-CEM
MOLT-4 = test system: MOLT-4
M14 = test system: M14
HT-29 = test system: HT-29
EKVX = test system: EKVX
HL-60 = test system: HL-60
Malme-3M = test system: Malme-3M
SN12C = test system: SN12C
SK-OV-3 = test system: SK-OV-3
HOP-92 = test system: HOP-92
UO-31 = test system: UO-31
DLD-1 = test system: DLD-1
KM-20L2 = test system: KM-20L2
LXFL 529 = test system: LXFL 529
NCI-H226 = test system: NCI-H226
COLO 205 = test system: COLO 205
UACC-257 = test system: UACC-257
IGROV-1 = test system: IGROV-1
RPMI-8226 = test system: RPMI-8226
OVCAR-5 = test system: OVCAR-5
CAKI-1 = test system: CAKI-1
HOP-18 = test system: HOP-18
786-0 = test system: 786-0
HOP-62 = test system: HOP-62
SF-539 = test system: SF-539
M19-MEL = test system: M19-MEL
OVCAR-8 = test system: OVCAR-8
SK-MEL-5 = test system: SK-MEL-5
U-251 = test system: U-251
LOX IMVI = test system: LOX IMVI
SW-620 = test system: SW-620
ACHN = test system: ACHN
TK-10 = test system: TK-10
OVCAR-4 = test system: OVCAR-4
SNB-75 = test system: SNB-75
SNB-78 = test system: SNB-78
KM12 = test system: KM12
OVCAR-3 = test system: OVCAR-3
RXF 393 = test system: RXF 393
NCI-H522 = test system: NCI-H522
SF-268 = test system: SF-268
RXF 631 = test system: RXF 631
HCT-116 = test system: HCT-116
SK-MEL-28 = test system: SK-MEL-28
A549 = test system: A549
DMS-114 = test system: DMS-114
SNB-19 = test system: SNB-19

COC(=O)C1[C@H](c2ccc3c(c2)OCO3)OC(=O)[C@]1(C(=O)OC)C(=O)c1ccc(OC)c(OC)c1 (some centres not stated)
GI50 (XF498): 81.8 µM (inactive)
GI50 (A498): > 100 µM (inactive)
GI50 (DMS-273): 25.1 µM (inactive)
GI50 (NCI-H23): 29.3 µM (inactive)
GI50 (UACC-62): 59.7 µM (inactive)
GI50 (SK-MEL-2): 23.4 µM (inactive)
GI50 (HCC 2998): 34.7 µM (inactive)
GI50 (SF-295): > 100 µM (inactive)
GI50 (NCI-H460): 38.7 µM (inactive)
GI50 (HCT-15): 33.7 µM
GI50 (SR): 34.2 µM (inactive)
GI50 (K562): 36 µM (inactive)
GI50 (CCRF-CEM): 43.3 µM (inactive)
GI50 (MOLT-4): 20.5 µM (inactive)
GI50 (M14): 70.1 µM (inactive)
GI50 (HT-29): 28.1 µM (inactive)
GI50 (EKVX): > 100 µM (inactive)
GI50 (HL-60): 25.2 µM (inactive)
GI50 (Malme-3M): 84.9 µM (inactive)
GI50 (SN12C): 48.9 µM (inactive)
GI50 (SK-OV-3): > 100 µM (inactive)
GI50 (HOP-92): 44.4 µM (inactive)
GI50 (UO-31): 87.3 µM (inactive)
GI50 (DLD-1): 17.4 µM (inactive)
GI50 (KM-20L2): 56 µM (inactive)
GI50 (LXFL 529): 41.5 µM (inactive)
GI50 (NCI-H226): > 100 µM (inactive)
GI50 (COLO 205): 42.7 µM (inactive)
GI50 (UACC-257): 40.2 µM (inactive)
GI50 (IGROV-1): 42.3 µM (inactive)
GI50 (RPMI-8226): 46.2 µM (inactive)
GI50 (OVCAR-5): 56.8 µM (inactive)
GI50 (CAKI-1): > 100 µM (inactive)
GI50 (HOP-18): > 100 µM (inactive)
GI50 (786-0): > 100 µM (inactive)
GI50 (HOP-62): > 100 µM (inactive)
GI50 (SF-539): > 10 µM (inactive)
GI50 (M19-MEL): 51.6 µM (inactive)
GI50 (OVCAR-8): 42.1 µM (inactive)
GI50 (SK-MEL-5): 56.2 µM (inactive)
GI50 (U-251): 44.9 µM (inactive)
GI50 (LOX IMVI): 18.8 µM (inactive)
GI50 (SW-620): 39.3 µM (inactive)
GI50 (ACHN): 60.3 µM (inactive)
GI50 (TK-10): > 100 µM (inactive)
GI50 (OVCAR-4): > 100 µM (inactive)
GI50 (SNB-75): 90.4 µM (inactive)
GI50 (SNB-78): 56.8 µM (inactive)
GI50 (KM12): 41.3 µM (inactive)
GI50 (OVCAR-3): 75.5 µM (inactive)

c1ccc2c(c1)oc1ccc3nsnc3c12
GI50 (RXF 393): 71 µM (inactive)
GI50 (NCI-H522): > 100 µM (inactive)
GI50 (A498): 63.4 µM (inactive)
GI50 (DMS-273): > 100 µM (inactive)
GI50 (NCI-H23): > 100 µM (inactive)
GI50 (UACC-62): > 100 µM (inactive)
GI50 (SK-MEL-2): > 100 µM (inactive)
GI50 (HCC 2998): > 100 µM (inactive)
GI50 (SF-295): > 100 µM (inactive)
GI50 (NCI-H460): > 10 µM (inactive)
GI50 (HCT-15): > 100 µM
GI50 (SR): > 100 µM (inactive)
GI50 (K562): > 100 µM (inactive)
GI50 (CCRF-CEM): > 100 µM (inactive)
GI50 (MOLT-4): > 100 µM (inactive)
GI50 (M14): > 100 µM (inactive)
GI50 (SF-268): > 100 µM (inactive)
GI50 (HT-29): > 100 µM (inactive)
GI50 (EKVX): 31.3 µM (inactive)
GI50 (HL-60): > 100 µM (inactive)
GI50 (Malme-3M): > 100 µM (inactive)
GI50 (SK-OV-3): > 100 µM (inactive)
GI50 (HOP-92): 45.7 µM (inactive)
GI50 (UO-31): > 100 µM (inactive)
GI50 (DLD-1): > 100 µM (inactive)
GI50 (KM-20L2): > 100 µM (inactive)
GI50 (LXFL 529): > 100 µM (inactive)
GI50 (NCI-H226): 51.6 µM (inactive)
GI50 (COLO 205): > 100 µM (inactive)
GI50 (RXF 631): 46.9 µM (inactive)
GI50 (HCT-116): > 100 µM (inactive)
GI50 (UACC-257): > 100 µM (inactive)
GI50 (IGROV-1): > 100 µM (inactive)
GI50 (OVCAR-5): > 100 µM (inactive)
GI50 (CAKI-1): > 100 µM (inactive)
GI50 (HOP-18): > 100 µM (inactive)
GI50 (SK-MEL-28): > 100 µM (inactive)
GI50 (786-0): > 100 µM (inactive)
GI50 (SF-539): > 100 µM (inactive)
GI50 (M19-MEL): > 100 µM (inactive)
GI50 (A549): > 100 µM (inactive)
GI50 (SK-MEL-5): > 100 µM (inactive)
GI50 (LOX IMVI): > 10 µM (inactive)
GI50 (SW-620): > 100 µM (inactive)
GI50 (DMS-114): > 100 µM (inactive)
GI50 (ACHN): > 100 µM (inactive)
GI50 (TK-10): > 10 µM (inactive)
GI50 (OVCAR-4): > 100 µM (inactive)
GI50 (SNB-19): > 100 µM (inactive)
GI50 (SNB-75): 53.3 µM (inactive)
GI50 (KM12): 56 µM (inactive)
GI50 (OVCAR-3): > 100 µM (inactive)
